Reference: patent US8071575B2, “Methods and compounds for the targeted delivery of agents to bone for interaction therewith” (priority 2007, dated 2011)
In brackets after ≈: the same amount, converted by molar mass.

Legend:
[1] = test system: SUM1315 human breast cancer cells; experiment: Anti-cancer effect: colony formation assay; format: cell-based; conditions: 0.05, 0.1, 0.5, 1, 5, and 10 μM, 10 days
Method: Anti-Cancer Effect: Colony formation assay. The anti-cancer effect of compounds including a bone active portion (RA) derived from an anti-cancer agent was tested. SUM1315 human breast cancer cells (derived from a clinical metastatic nodule) were seeded in 6 well plates at 5000 cells/well in 2 ml of medium. Cells were allowed to adhere overnight prior to drug treatment. Compounds of the presently-disclosed subject matter including a bone active portion (RA) derived from an anti-cancer agent, or the free anti-cancer agent, were added to the cells at concentrations of 0.05, 0.1, 0.5, 1, 5, and 10 μM and cells were allowed to grow at 37° C. for 10 days. In addition, untreated and vehicle (0.1% DMSO) treated wells were included as controls. After 10 days of treatment, medium was removed from each well and cells were subsequently washed with water. Cells were then fixed in 10% formaldehyde for 10 minutes, washed with water and then stained with 0.5% crystal violet for 5 minutes. Colonies of cells were subsequently counted under the microscope in three separate frames. Three independent experiments were performed and the results are an average of the three experiments. Images were obtained from a representative well for each concentration.

[2] = test system: SUM1315 human breast cancer cells; experiment: Anti-cancer effect: cell proliferation (MTT) assay; format: cell-based; conditions: 0.05, 0.1, 0.5, 1, 5, and 10 μM, days 1-6
Text: Anti-Cancer Effect: Cell Proliferation Assay. The colorometric MTT assay is based on the cleavage of a yellow MTT tetrazolium salt to form purple formazan crystals by the mitochondria of metabolically active and viable cells. The formazan crystals are insoluble in aqueous solution but can be dissolved in acid and quantified using a spectrophotometer. The number of living and viable cells in a sample directly correlates to the amount of purple formazan crystals formed. SUM1315 human breast cancer cells were seeded in triplicate in 96 well plates at 1000 cells/well and were allowed to adhere overnight prior to drug treatment. Compounds of the presently-disclosed subject matter including a bone active portion (RA) derived from an anti-cancer agent, or the free anti-cancer agent, were added to the cells at concentrations of 0.05, 0.1, 0.5, 1, 5, and 10 μM and cells were allowed to grow at 37° C. for 1, 2, 3, 4, 5, or 6 days. In addition, untreated and vehicle (0.1% DMSO) treated wells were included at each time point as controls. Following treatment the MTT assay was subsequently performed and the absorbance at 490 nm was recorded. Three independent experiments were performed and the results were averaged.

[3] = Hydroxyapatite (HA) Binding Assay; conditions: 10^−5 M analyte, 50 mM Tris-HCl pH 7.4, 1% DMSO; adjusted such that tetracycline = 100
Method: A Hydroxyapatite (HA) Binding Assay is used to determine whether compounds have an affinity for bone. Compounds of the presently-disclosed subject matter having a Bone Targeting Portion (RT) are studied using the HA Binding Assay. A 10^−3 M solution of each analyte was made in 100% dimethylsulfoxide (DMSO). A 100 fold dilution was then made to form a 10^−5 M solution in 50 mM Tris-HCl buffer, pH 7.4, 1% DMSO. Tetracycline was used as a reference analyte and approximately 50% was adsorbed to HA at the concentration of 10^−5 M. The HA slurry was 0.5 g/100 mL 50 mM Tris-HCl buffer, 1% DMSO.
For each analyte, two samples were prepared. For one sample, 1 mL of 10^−5 M analyte and 100 μL 50 mM Tris-HCl buffer, 1% DMSO was pipetted into a microcentrifuge tube. For the second sample, 1 mL of 10^−5 M analyte and 100 μL of the HA slurry was pipetted into a microcentrifuge tube. The samples were mixed gently by inversion for 4 minutes and then centrifuged at 12,000 g for 3 minutes to sediment the HA contained in those samples. The supernatant was transferred to another microcentrifuge tube.
An electronic spectral scan (ultraviolet-visible) from 220-520 nm was obtained for each analyte using a Varian Cary 300 Bio Scan. The blank was 50 mM Tris-HCl buffer, 1% DMSO. The wavelength of maximum absorbance (λmax) was determined, and the extinction coefficient (ε) was calculated using the Beer-Lambert Law.
The absorbance of the samples incubated with HA was measured at λmax, and the molar concentration of the analyte was then determined using the Beer-Lambert Law and the previously calculated extinction coefficient. The fraction adsorbed to HA for each sample was subsequently calculated.

[4] = test system: Staphylococcus aureus ATCC 29213; experiment: MIC, broth microdilution, S. aureus ATCC 29213 (QC strain); format: cell-based; conditions: ATCC29213, read-out: minimum inhibitory concentration (MIC)
Method: (§1) Antimicrobial Effect: Minimum Inhibitory Concentration (MIC) of a Test Compound Against Isolates of Staphylococcus aureus. The Minimum inhibitory concentration (MIC) of compounds of the presently-disclosed subject matter including a bone active portion (RA) derived from an antimicrobial agent, and free antimicrobial agents, were determined by Ricerca Biosciences LLC (Concord, Ohio) using the standard in vitro broth microdilution assay (CLSI). Two isolates of S. aureus, one resistant to Methicillin (ATCC 33591) and one nonresistant to Methicillin (ATCC 49230) were used for the evaluation. ATCC 49230 is a clinical isolate from a patient with chronic osteomyelitis. Additionally, a quality control isolate (ATCC 29213) was included in the analysis. Briefly, twelve, serial, one-half dilutions of compounds of the presently-disclosed subject matter including a bone active portion (RA) derived from an antimicrobial agent, and free antimicrobial agents, were prepared in 96-well plates in Mueller Hinton Broth (MHB). The highest concentration of each compound used was 64 μg/mL. Bacterial suspensions were prepared and added to each well at a concentration of approximately 5×10^5 colony-forming-units per milliliter. The inoculated plates were incubated for 16-20 h at 35±1° C. At the completion of incubation, the wells of each plate were evaluated visually for the presence of bacterial growth. […]

[5] = test system: Staphylococcus aureus ATCC 29213; conditions: ATCC 29213, QC strain, acceptance range; cited from earlier work
[6] = test system: Staphylococcus aureus ATCC 33591; experiment: MIC, broth microdilution, S. aureus ATCC 33591 (MRSA); format: cell-based; conditions: read-out: minimum inhibitory concentration (MIC)
Method: as §1

[7] = test system: Staphylococcus aureus ATCC 49230; experiment: MIC, broth microdilution, S. aureus ATCC 49230; format: cell-based; conditions: ATCC49230, read-out: minimum inhibitory concentration (MIC)
Method: as §1

Compound	colony formation [1]	cell proliferation (MTT) [2]	Binding Index (binding to hydroxyapatite) [3]	MIC [4]	acceptable vancomycin MIC range [5]	MIC [6]	MIC [7]
COc1cccc2c1C(=O)c1c(O)c3c(c(O)c1C2=O)C[C@@](O)(C(=O)CO)C[C@H]3OC1C[C@H](NC(=O)CCCC(=O)NCCOCCOCC(=O)Nc2ccc(OC)c(C(N)=O)c2O)[C@H](O)[C@H](C)O1 (stereo partly shown) [Formula 138]	dose-responsive decrease in colony formation	dose-responsive decrease in cell proliferation	60				
CN[C@H](CC(C)C)C(=O)N[C@H]1C(=O)N[C@@H](CC(N)=O)C(=O)N[C@H]2C(=O)N[C@H]3C(=O)N[C@H](C(=O)N[C@H](C(=O)O)c4cc(O)cc(O)c4-c4cc3ccc4O)[C@H](O)c3ccc(c(Cl)c3)Oc3cc2cc(c3O[C@@H]2O[C@H](CO)[C@@H](O)[C@H](O)[C@H]2O[C@H]2C[C@](C)(N)[C@H](O)[C@H](C)O2)Oc2ccc(cc2Cl)[C@H]1O [vancomycin]				1 µg/mL (≈ 0.69 µM)	^cQC strain: Acceptable vancomycin MIC range: 0.5-2 μg/mL	1 µg/mL (≈ 0.69 µM)	1 µg/mL (≈ 0.69 µM)
